Values after ≈ are worked out from the molar mass of the structure shown. Values joined by “and” are separate entries in the source; they are usually repeats but may differ in a detail not shown here. Equal values may be shown once. Read-outs that look alike come from different tables or passages of the source.
Assays:
Candida isolates [1] = type: cell-based, Candida spp.
R. delemar 99–880 = experiment: CLSI M38 in vitro susceptibility; type: cell-based, Rhizopus delemar; settings: Rhizopus delemar, read-out: MIC at 100% inhibition of growth
Protocol: Methods & Materials: In vitro susceptibility was conducted by the CLSI M38 method using a clinical isolate of Rhizopus delemar (a common cause of mucormycosis). ICR mice were immunosuppressed with cyclophosphamide and cortisone acetate on days −2, +3, and +8, relative to infection with intratracheally instilled R. delemar. […] Mice survival through Day +21 served as the primary endpoint.

[2] = tested on: A. terreus sensu stricto isolates; experiment: AMB MIC (EUCAST) of isolates used for time-kill; type: cell-based; settings: Aspergillus terreus
Protocol: Materials & Methods: Tolerance is the ability of a “susceptible isolate” to grow in the presence of AMB above the MIC; tolerant fungi are characterized by a longer minimum duration of killing time (MDK) than susceptible isolates. We investigated AMB-MDKs of A. terreus sensu stricto isolates (n = 4) representing susceptible (S < […]) and resistant (R > […]) phenotypes (EUCAST). Time-kill curve analysis (99% killing of the initial population) was performed in RPMI 1640 and AM3 media at different AMB concentrations, and in parallel, the germination rate was determined microscopically.

[3] = tested on: sessile cells of yeast mono and dual-species biofilms; experiment: MIC of catheter yeast isolates, mono and dual-species biofilms; type: cell-based; settings: range
[4] = tested on: Cryptococcus bacillisporus (AFLP5/VGIII); experiment: Treatment of a grey parrot with cryptococcosis; type: in vivo, grey parrot (Psittacus erithacus); settings: in drinking water, 600 mg per litre, after 6 months
From the text: Phenotypic and molecular analysis of the isolated yeast allowed the identification of Cryptococcus bacillisporus (AFLP5/VGIII) as the cause of the infection.

C. albicans = experiment: Candidemia Netherlands, MIC distributions against EUCAST ECOFF; type: cell-based, Candida albicans
Cryptococcal isolates = experiment: CLSI broth micro dilution; type: cell-based, Cryptococcus neoformans, C. gattii
C. guilliermondii = experiment: EUCAST E. Def 7.3.2 microdilution; type: cell-based, Candida guilliermondii; settings: for MIC50 / MIC90 / GM / MIC Range: n = 62
A. niger complex = experiment: EUCAST E.Def 9.3.2 susceptibility, CPA isolates; type: cell-based, Aspergillus niger complex; settings: n = 7, ECOFFs
[5] = tested on: azole-resistant A. fumigatus SS clinical strains; experiment: EUCAST E.DEF 9.3.2; type: cell-based; settings: Aspergillus fumigatus
[6] = tested on: Parathyridaria percutanea; experiment: In vitro antifungal susceptibility; type: cell-based
A. fumigatus strains = experiment: EUCAST E.DEF 9.3.2 broth microdilution; type: cell-based, Aspergillus fumigatus; design: MIC Range: unit not given beside the values; MIC50 / MIC90: unit not given here
Protocol: Methods: The research was conducted on 29 A. fumigatus strains. Minimum inhibitory concentrations (MIC) were detected by broth microdilution method (BM) following EUCAST definitive document E.DEF 9.3.2 and E-test in accordance with manufacturer instructions.

[7] = tested on: A. fumigatus veterinary isolates; experiment: EUCAST microdilution of veterinary isolates; type: cell-based, Aspergillus fumigatus
Protocol: All have been confirmed as A. fumigatus by MALDI-TOF MS using the BCCM/IHEM database. The antifungal susceptibility was evaluated using the microdilution EUCAST method. Cyp51A gene sequencing has been performed on all resistant isolates.

A. fumigatus complex = settings: share of isolates, n = 59, EUCAST clinical breakpoints
A. fumigatus isolates = experiment: AFST by EUCAST method and direct inoculation of spore suspensions
Protocol: Material/methods: We used two methods for AFST: In the standard “EUCAST method”, AFST was performed using spores from a maturated colony. In the “direct inoculation method”, AFST was performed using the spore suspensions that were either stored or sent from other laboratories directly without a subculturing phase. Three groups of isolates were analyzed. […] Spore suspensions were prepared and AFST was performed daily after storing the isolates for 4 days at room temperature, and after 4 days for spore suspensions stored at 2–4 °C and at 28 °C. All measurements were performed in triplicate. Group II, retrospective analysis: 50 isolates that were sent to our laboratory as spore suspensions were tested using the direct inoculation method and stored at −70 °C in glycerol broth. The stored isolates were revived and AFST was repeated using the EUCAST method. Group III: prospective analysis: 30 isolates that were sent to our laboratory as spore suspensions were tested using the direct inoculation method and simultaneously using the EUCAST methods without storage at −70 °C. MICs based on the EUCAST and direct inoculation methods were compared.

McLDM-F5 = experiment: microbe, parasite or virus in culture; type: cell-based, Saccharomyces cerevisiae AD2Δgal; settings: Saccharomyces cerevisiae, read-out: mean MIC
Candida isolates [8] = type: cell-based, Candida spp.; settings: E-Test strips
C. glabrata isolates = experiment: Rapid XTT assay based on EUCAST E.Def 7.3; type: cell-based, Candida glabrata
C. blankii = experiment: Vitek 2 fungal susceptibility card; type: cell-based, Candida blankii
C. auris = experiment: ARIA surveillance, CLSI M27 broth microdilution; type: cell-based, Candida auris; settings: CDC tentative breakpoints
Candida lipolytica = experiment: CLSI M44 agar diffusion; type: cell-based
Aspergillus tubingensis = experiment: EUCAST susceptibility; type: cell-based; settings: read-out: MIC
Protocol: The fungus was identified as Aspergillus niger and liposomal amphotericine B was switched to anidulafungin pending susceptibility testing as the patient had pre-existing […] (eGFR CKD-EPI 40 mL/min/1.73 m²). […] Despite increasing the anidulafungin dosage to 200 mg daily and adequate voriconazol levels, serum galactomannan levels remained elevated (index 2.1 at discharge). […] Since no extracardiac sources were found and the patient did well clinically, they were discharched. Anidulafungin was switched to caspofungin to facilitate ongoing IV treatment in the outpatient setting. […] The patient died shortly after. Obduction was not performed.

[9] = tested on: S. apiospermum (SA) biofilms; experiment: Mature biofilm damage, XTT metabolic reduction assay; settings: Scedosporium apiospermum, 24 h, read-out: BF MIC50
[10] = strain from pleural fluid of an ICU patient, no mutations in cyp51A
[11] = two strains from a cystic fibrosis patient, TR34/L98H

Structure (SMILES) | isolates within the wildtype distribution range (C. albicans) [%] | MIC50 (Cryptococcal isolates) [µg/mL] | MIC90 (Cryptococcal isolates) [µg/mL] | MIC50 (C. guilliermondii; Meyerozyma guilliermondii) [µg/mL] | MIC90 (C. guilliermondii; Meyerozyma guilliermondii) [µg/mL] | GM (C. guilliermondii) [µg/mL] | MIC Range (C. guilliermondii) [µg/mL] | Non-wild type isolates (A. niger complex) [%] | MIC [5, 10] [µg/mL] | MIC [5, 11] [µg/mL] | in vitro susceptibility category [6] | MIC50 (A. fumigatus strains; 28 h) | MIC90 (A. fumigatus strains; 28 h) | MIC Range (A. fumigatus strains; 28 h, 29 strains) | MIC50 (A. fumigatus strains; 48 h) | MIC90 (A. fumigatus strains; 48 h) | MIC Range (A. fumigatus strains; 48 h) | Resistance (A. fumigatus complex) [%] | MIC (McLDM-F5) [µg/mL] | also measured
C[C@@H]1[C@H](O)[C@@H](C)/C=C/C=C/C=C/C=C/C=C/C=C/C=C/[C@H](O[C@@H]2O[C@H](C)[C@@H](O)[C@H](N)[C@@H]2O)C[C@@H]2O[C@](O)(C[C@@H](O)C[C@@H](O)[C@H](O)CC[C@@H](O)C[C@@H](O)CC(=O)O[C@H]1C)C[C@H](O)[C@H]2C(=O)O [amphotericin B] | 100 | 0.25 (≈ 0.271 µM) | 0.5 (≈ 0.541 µM) | 0.25 (≈ 0.271 µM) | 0.25 (≈ 0.271 µM) | 0.177 | 0.06 to 0.5 | – | – | – | – | – | – | – | – | – | – | – | – | susceptibility (Candida isolates [1]): susceptible; MIC (R. delemar 99–880): 0.06 µg/mL (≈ 0.0649 µM); MIC ([2]; A. terreus 81 and 31, each): 1 µg/mL (≈ 1.08 µM); MIC ([2]; A. terreus 134): 4 µg/mL (≈ 4.33 µM); MIC ([2]; A. terreus 164): 0.5 µg/mL (≈ 0.541 µM); MIC [3]: 0.25 to 8 µg/mL; clinical response [4]: good response
CCC(C)n1ncn(-c2ccc(N3CCN(c4ccc(OCC5COC(Cn6cncn6)(c6ccc(Cl)cc6Cl)O5)cc4)CC3)cc2)c1=O (centres unmarked) [itraconazole] | – | – | – | – | – | – | – | 29 | > 8 | > 8 | resistance | 0.5 | 0.5 | 0.5–8 | 0.5 | 1 | 0.5–16 | 5 | – | isolates with values equal to the clinical breakpoint [7]: 33%; resistance of isolates [7]: No resistance; MIC (A. fumigatus isolates; Aspergillus fumigatus, Group II, 5 strains, direct inoculation method): 2 to 4 µg/mL (≈ 2.83 to 5.67 µM); MIC (A. fumigatus isolates; Aspergillus fumigatus, Group II, the same 5 strains, EUCAST method): 0.5 to 1 µg/mL (≈ 0.709 to 1.42 µM)
OC(Cn1cncn1)(Cn1cncn1)c1ccc(F)cc1F [fluconazole] | 96.8 | 1 (≈ 3.27 µM) | 4 (≈ 13.1 µM) | 8 (≈ 26.1 µM) | 16 (≈ 52.2 µM) | 7.655 | 0.125 to 64 | – | – | – | resistance | – | – | – | – | – | – | – | 42.7 (≈ 139 µM) | resistant isolates (Candida isolates [1]): 6.4%; comparative effectiveness among antifungals (Candida isolates [8]): most effective antifungal; XTT-absorbance in drug-treated wells (C. glabrata isolates): 0.67 ± 0.15 and 0.51 ± 0.08; susceptibility (C. blankii): resistant; susceptible (C. auris): 56.3%; MIC of non wild-type isolates (C. guilliermondii): 64 µg/mL; MIC (C. guilliermondii; Meyerozyma guilliermondii, read-out: MIC of non wild-type isolates): 32 µg/mL; resistant isolates (Candida lipolytica; […], discs 25 μg fluconazole, 1 μg voriconazole): 67%; increase of clearance per 100 g increase in actual bodyweight (in vivo): 16%; decrease of clearance per 10 µmol/L increase in creatinine concentration (once postnatal age was above 1 week): 12%; volume of distribution (one-compartment model, typical infant of 0.87 kg): 0.844 L; estimated clearance (one-compartment model, typical infant of 0.87 kg, serum creatinine 60 µmol/L, 41 preterm neonates, 146 plasma samples): 0.0147 L/h
C[C@@H](c1ncncc1F)[C@](O)(Cn1cncn1)c1ccc(F)cc1F [voriconazole] | – | – | – | – | – | – | – | 29 | 1 (≈ 2.86 µM) | 4 (≈ 11.5 µM) | – | 0.5 | 1 | 0.25–4 | 1 | 2 | 0.25–8 | 9 | 0.58 (≈ 1.66 µM) | isolates in the area of technical uncertainty (ATU) [7]: 47%; MIC (Aspergillus tubingensis): 1 µg/mL (≈ 2.86 µM); resistant isolates (Candida lipolytica): 58%; MIC50 [9]: 32 µg/mL (≈ 91.6 µM); MIC (A. fumigatus isolates; Aspergillus fumigatus, Group I, one resistant isolate): 2 to 4 µg/mL (≈ 5.73 to 11.5 µM); MIC (A. fumigatus isolates; Group III, one isolate, EUCAST methods): 2 µg/mL (≈ 5.73 µM); MIC (A. fumigatus isolates; Group III, the same isolate, direct inoculation): 1 µg/mL (≈ 2.86 µM)
